In US20160129155A1, “MUSCULOSKELETAL TISSUE FABRICATION” (University of Pittsburgh - Of the Commonwealth System of …, priority 2014, published 2016):

Legend:
[1] = system: engineered osteochondral constructs; assay: IL-1β treatment of engineered osteochondral constructs, MMP ELISA of medium; type: cell-based, human
Protocol: (§1) IL-1β treatment in engineered micro-osteochondral constructs. After 4 weeks of differentiation, engineered the osteochondral constructs were treated with IL-1β […], R&D) on the chondral or osseous sides only to investigate the cell/neo-tissue response to pro-inflammatory cytokines and possible communication through the osteochondral construct. The media used in this test were CM without TGF-β3 (chondral) and OM without BMP-2 (osseous) both supplemented with 5 ng/ml There were experimental groups: (1) CM/GM, (2) CM+IL1-1β/GM, (3) CM/GM+IL1-1β. The treatment lasted 7 days, with effluent medium collected and frozen at 1, 7 days for ELISA. After 7 days, the osteochondral constructs were bisected into the chondral and osseous halves and processed for gene expression analysis as described before. In addition to tissue specific gene expression, matrix metalloproteinase 1, 3, 13 were also analyzed.
Enzyme-linked immunosorbent assay (ELISA). Media was collected separately from chondral and osseous constructs, cleared of cell debris via centrifugation (1000×g), and analyzed via IL-1β (Abcam, Cambridge, Mass.), MMP-1 (R&D), MMP-3 (Abcam, Cambridge, Mass.), and MMP-13 (Abcam) ELISAs according to the manufacturers' instructions.
(§2) IL1β treatment on engineered osteochondral tissue. As described above, the microtissue bioreactor presented here, with its two separate medium flow systems and biphasic construct compartments, has the capability for targeted treatment of one (or both) tissue construct(s) with soluble factors. Osseous and chondral components were separately treated with the pro-inflammatory cytokine IL-1β (10 ng/ml) for 7 days (control conditions consisted of untreated osteochondral constructs), and the responses of each of the two components were separately analyzed. Media samples were collected from chondral and osseous components streams at day 1 and 7, and, after day 7, the osteochondral constructs were separated into osseous and chondral components, and each was separately analyzed for gene expression of catabolic genes (MMP-1, MMP-3, MMP-13) and either cartilage markers (Sox9, Col2, aggrecan) (FIG. 20) or bone markers (RUNX2, osteocalcin, BSPII) (FIG. 21). Media samples from the chondral and osseous components stream collected at days 1 and 7 were analyzed via MMP-1, MMP-3, and MMP-13 ELISAs (FIG. 22).

[2] = system: engineered osteochondral constructs; assay: IL-1β treatment of engineered osteochondral constructs, real time PCR; type: cell-based, human; details: 10 ng/ml, 7 days
Protocol: Real time PCR. Chondral and osseous constructs were collected separately. To avoid the potential contamination, the bonded margin of each construct was cut away using a razor blade. Total RNA was extracted using Trizol (Invitrogen) following the standard protocol and purified with the RNeasy Plus mini kit (Qiagen, Hilden, Germany). SuperScript III kit (Invitrogen) was utilized with random hexamer primers to complete the reverse transcription. Real-time RT-PCR was performed using the StepOnePlus thermocycler (Applied Biosystems, Foster City, Calif.) and SYBR Green Reaction Mix (Applied Biosystems). Sox 9, Aggrecan (ACN) and collagen type II (COL2A1), RunX2, Osteocalcin (OCN), Bone sialoprotein (BSP II) expression were analyzed. Monolayers of hBMSCs cultured in GM on 2D tissue culture plastic were used as negative controls. Transcript level of 18S rRNA was used as endogenous control: […], Gene expression folder changes were calculated using the Comparative CT (ΔΔCT) method.
as §1, §2

hASCs [3] = assay: Chondrogenesis of hASCs in VL-PSL constructs (RT-PCR, hydroxyproline, histology, IHC); type: cell-based, human
Protocol: (§3) The fabricated constructs were detached from the platform and washed 3 times to remove uncured polymer solution. The constructs were cultured in control medium (CM, DMEM with 1% L-alanyl-L-glutamine, 55 μM sodium pyruvate, 1× antibiotic-antimycotic, and 1% Insulin-Transferrin-Selenium (ITS)) or chondrogenic medium (CGM, CM supplemented with 10 ng/ml transforming growth factor-β3 (TGF-β3), 100 nM dexamethasone, 50 μM L-ascorbic acid 2-phosphate, and 23 μM L-proline) up to 28 days, which were designated as Control or TGF-β3 group, respectively.
Total RNA of the cells within the constructs was isolated using TRIZOL reagent and purified. Reverse transcription reactions were performed. Real-time PCR was performed with a thermocycler. All sample values were normalized to 18S rRNA using the 2^−ΔΔCt method.
Total collagen content deposited within the constructs was determined by measuring hydroxylproline levels. The constructs (5 mm diameter and 2 mm thickness) were homogenized in water by grinding and hydrolyzed using the same volume of 12N HCl at 120° C. for 3 hours. Hydroxyproline content in constructs was quantitated using a Hydroxyproline Colorimetric Assay Kit.
After 28 days culture, constructs were removed from the incubator, washed twice, and fixed in buffered paraformaldehyde (4%) for 1 day at room temperature. After washed with PBS for 3 times, they were then cryosectioned using a cryostat at 8 μm thickness. For assessment of glycosaminoglycan deposition, the slides were stained with either Alcian Blue or Safranin-O/Fast Green following standard protocols.
Enzymatic antigen retrieval was performed using chondroitinase/hyaluronidase (1 mg/ml and 5 mg/ml) at 37° C. for 30 min, and was suppressed with 1% horse serum in PBS for 45 min. After blocking endogenous peroxidase (3% H2O2 in methanol for 10 min) and nonspecific binding (1% horse serum), slices were incubated with primary antibodies against collage type II overnight at 4° C. After washing, biotinylated secondary antibodies were applied for 30 min. Staining was developed by treating samples with horseradish peroxidase (HRP)-conjugated streptavidin/NovaRED™ peroxidase substrate.

hASCs [4] = type: cell-based; details: 28 days
Protocol: P3 hASCs were pelleted by centrifugation and the supernatant was completely removed. The polymer solution prepared above was used to re-suspend hASCs at 4×10^6cells/ml, and then the cell-polymer solution was immediately poured into the basement plate of the PSL device for printing with different 3D models as the template.
as §3
At various time points post-fabrication, cell viability was assessed with the Live/Dead Viability/Cytotoxicity kit as examined by epifluorescence microscopy. The percentage of live cells was calculated as the number of green-staining cells divided by the total number of cells (green & red staining cells).

[5] = IL-1β treatment of osseous component
[6] = IL-1β treatment of chondral construct
[7] = day 28, TGF-β3 group versus control group

Row | Substance | osseous construct MMP secretion response ([1]; IL-1β treatment of chondral component, days 1 and 7) | chondral MMP-1, MMP-3 and MMP-13 secretion [1, 5] | chondral MMP-1 response time [1, 5] [days] | chondral MMP-13 response time [1, 5] [days] | MMPs production in the osseous construct [2, 6] | osseous construct expression of osteocalcin and BSPII [2, 6] | chondral construct expression of Sox9, Col2 and aggrecan ([2]; IL-1β treatment of chondral constructs) | chondral construct expression of MMP-1, MMP-3 and MMP-13 [2, 5] | chondral construct expression of Sox9, Col2 and aggrecan ([2]; IL-1β treatment of osseous constructs) | Alcian Blue and Safranin O staining (GAG) (hASCs [3]; day 28, TGF-β3 group) | IHC for collagen type II (hASCs [3]; day 28, TGF-β3 group) | hydroxyproline level (hASCs [3]; day 28, TGF-β3 group) [μg/construct] | Runx2 expression (hASCs [3]; [7]) | expression of Sox 9, aggrecan and collagen II (hASCs [3]; [7]) | cell viability (hASCs [4]; chondrogenic medium supplemented with TGF-β3) [%] | cell proliferation by MTS assay (hASCs [4]; chondrogenic medium with TGF-β3)
1 | interleukin-1β [IL-1β] | quick yet increased further over time | increases | 7 | ≤ 1 | increases | decreases | decreases | increased substantially | decreased |  |  |  |  |  |  | 
2 | transforming growth factor-β3 [TGF-β3] |  |  |  |  |  |  |  |  |  | dense, strong staining | positive staining | 21.16±7.15 | higher in the control group | significantly higher | 77 | promoted cell proliferation
